Assay results taken from US8476197B2, “Aminopropenoates as fungicides” (priority 2009, dated 2013).
Marks after values point to notes of the source that are not given here.

Conditions: pH 2.7

CCNC(=O)C(C#N)=C(NCC(C)c1nccs1)c1cccnc1Cl (stereo not drawn) [Compound 1120]
Log P: 2.14^[a]

CCOC(=O)C(C#N)=C(NC1CCCCC1C)c1cn(C)nc1C(F)F (stereo not drawn) [Compound 1122]
Log P: 3.6^[a]

CCOC(=O)C(C#N)=C(NC1CCC1)c1cn(C)nc1C(F)F [Compound 1123]
Log P: 2.73^[a]

CCOC(=O)C(C#N)=C(NC1CC1)c1cn(C)nc1C(F)F [Compound 1124]
Log P: 2.35^[a]

CCCCC(C)NC(=C(C#N)C(=O)OCC)c1cn(C)nc1C(F)F (stereo not drawn) [Compound 1125]
Log P: 3.58^[a]

CCOC(=O)C(C#N)=C(NC[Si](C)(C)C)c1cn(C)nc1C(F)F [Compound 1126]
Log P: 3.35^[a]

C=CCNC(=C(C#N)C(=O)OCC)c1cn(C)nc1C(F)F [Compound 1127]
Log P: 2.35^[a]

C#CCNC(=C(C#N)C(=O)OCC)c1cn(C)nc1C(F)F [Compound 1128]
Log P: 2.13^[a]

CCOC(=O)C(C#N)=C(NC(CC(C)C)C(=O)OCC)c1cn(C)nc1C(F)F (stereo not drawn) [Compound 1129]
Log P: 3.53^[a]

CCOC(=O)C(C#N)=C(NC1CC1C)c1cn(C)nc1C(F)F (stereo not drawn) [Compound 1130]
Log P: 2.68^[a]

CCOC(=O)C(C#N)=C(NC1C2CCCCC21)c1cn(C)nc1C(F)F (stereo not drawn) [Compound 1131]
Log P: 3.44^[a]

CCOC(=O)C(C#N)=C(NC1(C#N)CC1)c1cn(C)nc1C(F)F [Compound 1132]
Log P: 2.1^[a]

CCOC(=O)C(C#N)=C(NC(C)C1CCC1)c1cn(C)nc1C(F)F (stereo not drawn) [Compound 1133]
Log P: 3.33^[a]

CCOC(=O)C(C#N)=C(NC(C)C1CC2CCC1C2)c1cn(C)nc1C(F)F (stereo not drawn) [Compound 1134]
Log P: 4.03^[a]

CCOC(=O)C(C#N)=C(NC(C)COCC(C)(C)C)c1cn(C)nc1C(F)F (stereo not drawn) [Compound 1135]
Log P: 4.08^[a]

CCOC(=O)C(C#N)=C(NC(C)CC1CC1)c1cn(C)nc1C(F)F (stereo not drawn) [Compound 1136]
Log P: 3.23^[a]

CCOC(=O)C(C#N)=C(NC(C(=O)NC)c1ccccc1)c1cn(C)nc1C(F)F (stereo not drawn) [Compound 1137]
Log P: 2.27^[a]

CCOC(=O)C(C#N)=C(NC(C)CC(=O)Nc1ccccc1C)c1cn(C)nc1C(F)F (stereo not drawn) [Compound 1138]
Log P: 2.68^[a]

CCOC(=O)CC(C)NC(=C(C#N)C(=O)OCC)c1cn(C)nc1C(F)F (stereo not drawn) [Compound 1139]
Log P: 2.66^[a]

CCOC(=O)C(C#N)=C(NC(C(=O)OC)c1ccccc1)c1cn(C)nc1C(F)F (stereo not drawn) [Compound 1140]
Log P: 2.94^[a]

CCOC(=O)C(C#N)=C(NC(C)C1CC=CCC1)c1cn(C)nc1C(F)F (stereo not drawn) [Compound 1141]
Log P: 3.62^[a]

CC#CC(C)NC(=C(C#N)C(=O)OCC)c1cn(C)nc1C(F)F (stereo not drawn) [Compound 1142]
Log P: 2.8^[a]

CC#CC1(NC(=C(C#N)C(=O)OCC)c2cn(C)nc2C(F)F)CCCC1 [Compound 1143]
Log P: 3.39^[a]

CCOC(=O)C(C#N)=C(NC1CC2CCC1C2)c1cn(C)nc1C(F)F (stereo not drawn) [Compound 1144]
Log P: 3.46^[a]

CCOC(=O)C(C#N)=C(NC1CC1CC)c1cn(C)nc1C(F)F (stereo not drawn) [Compound 1146]
Log P: 3.04^[a]

CCOC(=O)C(C#N)=C(NC1CC1C(F)(F)F)c1cn(C)nc1C(F)F (stereo not drawn) [Compound 1147]
Log P: 2.75^[a]

CCOC(=O)C(C#N)=C(NC1CC1(C)C)c1cn(C)nc1C(F)F (stereo not drawn) [Compound 1148]
Log P: 3^[a]

CCOC(=O)C(C#N)=C(NC(C)c1ccc(F)cc1)c1cccnc1Cl (stereo not drawn) [Compound 1149]
Log P: 3.51^[a]

CCOC(=O)C(C#N)=C(NC(C)c1ccc(C)cc1)c1cccnc1Cl (stereo not drawn) [Compound 1150]
Log P: 3.87^[a]

CCOC(=O)C(C#N)=C(NC(C)c1ccccc1)c1cccnc1Cl (stereo not drawn) [Compound 1151]
Log P: 3.48^[a]

CCOC(=O)C(C#N)=C(NC(C)c1cccc(Cl)c1)c1cccnc1Cl (stereo not drawn) [Compound 1152]
Log P: 3.83^[a]

CCOC(=O)C(C#N)=C(Nc1ccc(OC)cc1)c1cccnc1Cl [Compound 1153]
Log P: 2.98^[a]

CCOC(=O)C(C#N)=C(Nc1ccc(C(C)C)cc1)c1cccnc1Cl [Compound 1154]
Log P: 4.08^[a]

CCOC(=O)C(C#N)=C(NC(C)COc1ccccc1C)c1cccnc1Cl (stereo not drawn) [Compound 1155]
Log P: 4.01^[a]

CCOC(=O)C(C#N)=C(NC(C)CSc1ccc(Cl)cc1)c1cccnc1Cl (stereo not drawn) [Compound 1156]
Log P: 4.08^[a]

CCOC(=O)C(C#N)=C(NC(C)CSc1cc(Cl)ccc1Cl)c1cccnc1Cl (stereo not drawn) [Compound 1157]
Log P: 4.27^[a]

CCOC(=O)C(C#N)=C(NC(C)CSc1ccc(Cl)c(Cl)c1)c1cccnc1Cl (stereo not drawn) [Compound 1158]
Log P: 4.41^[a]

CCOC(=O)C(C#N)=C(NC(C)C(C)Sc1ccccc1)c1cccnc1Cl (stereo not drawn) [Compound 1159]
Log P: 4.13^[a]

CCOC(=O)C(C#N)=C(NC(C)COc1cccc(C(F)(F)F)c1)c1cccnc1Cl (stereo not drawn) [Compound 1160]
Log P: 4.13^[a]

CCOC(=O)C(C#N)=C(NC(C)COc1ccccc1)c1cccnc1Cl (stereo not drawn) [Compound 1161]
Log P: 3.58^[a]

CCOC(=O)C(C#N)=C(NC(C)COCc1ccccc1)c1cccnc1Cl (stereo not drawn) [Compound 1162]
Log P: 3.71^[a]

CCOC(=O)C(C#N)=C(NC(C)COCc1ccccc1F)c1cccnc1Cl (stereo not drawn) [Compound 1163]
Log P: 3.69^[a]
